Experimental findings from patent US20240083846A1, “SMAC MIMETICS FOR TREATMENT OF CANCER, PROCESS FOR PREPARATION AND PHARMACEUTICAL COMPOSITION THEREOF” (COUNCIL OF SCIENTIFIC & INDUSTRIAL RESEARCH, priority 2020, published 2024) are described below.

The nature of data set [1]: SRB cytotoxicity assay, VERO. The data set is classed as cell-based, monkey. The note with it: monkey, VERO cells; 10 μM, 48 hours, SRB assay; read-out: In vitro cytotoxicity at 10 μM dose, VERO (percent growth inhibition). On the procedure:
(§1) In vitro cytotoxic activities of different compounds were assessed by using standard SRB assay in different cells. The absorbance of the treated and untreated cells was measured on a multi-well scanning spectrophotometer (Epoch Microplate Reader, Biotek, USA) at a wavelength of 510 nm. Percent growth inhibition was calculated by using the formula […].

In the next data set the test system is VERO cells. The data set is described as follows: SRB cytotoxicity assay, VERO. The data set is classed as cell-based, monkey. On the procedure: as §1
(In general: In SRB staining, fixed cells bind dye roughly in proportion to their protein.)

The next data set has as its system K562 cells. The data set is described as follows: SRB cytotoxicity assay, K562. It is filed as cell-based. The conditions noted are these: Homo sapiens, Leukemia. The protocol:
as §1
(§2) SMAC mimetics promotes tumor cell selective cytotoxic effects. SW 620, HT 29, HCT 116 and VERO cells were treated with series of Smac mimetics at 10 μM dose for 48 hours and cytotoxicity was measured by SRB assay. As C6 had shown robust in-vitro cytotoxic effect against tumor cells but not to VERO cells, we determined IC50 value of C6 against different types of cancer cell lines. ICso values are represented in Table 2.

The test system of the next data set is PANC-1 cells. As to the kind of experiment: SRB cytotoxicity assay, PANC-1. The conditions noted are these: Homo sapiens, Pancreas. It is filed as cell-based. The protocol:
as §1, §2

The target of the next data set is XIAP BIR3 protein (Homo sapiens, UniProt P98170). The data set is described as follows: Fluorescence polarization competition binding assay, XIAP BIR3. The conditions noted are these: displacement of AVPIAQK(FAM)-OH, fluorescence polarization; read-out: Target Binding BIR3 Ki. The protocol:
The SMAC mimetics 1-9 were tested for their ability to displace the fluorescent labeled peptide AVPIAQK(FAM)-OH from XIAP BIR2 or XIAP BIR3 protein. The dose dependent binding experiment were then carried out by sequentially increasing the concentration of SMAC mimetic compounds at constant concentration of fluorescent labeled peptide and XIAP BIR2 or XIAP BIR3 protein. IC5- values were determined from the plot draw by prism software using nonlinear least-squares analysis. The Ki values of the SMAC mimetics were calculated which was based upon the measured IC50 values, the Kd value between tracer AVPIAQK(FAM)-OH and XIAP BIR2 or XIAP BIR3 complex, and the concentrations of the protein and tracer in the competition assay by using the web based program which are freely accessed at http://sw16.im.med.umich.edu/software/calc_ki/.In-silico.
Binding isotherms were plotted between FP reading versus log values of protein concentration in nM. The data was analysed using GraphPad prism and Kd values were determined using Boltzmann-sigmoidal non-linear regression curve fitting.
A general note: In fluorescence polarisation assays a small probe gives low polarisation when free and higher when bound to something large.

The test system of the next data set is PC-3 cells. As to the kind of experiment: SRB cytotoxicity assay, PC-3. The data set is classed as cell-based. The note with it: Homo sapiens, Prostrate. On the procedure:
as §1, §2

Data set [2] deals with TRAIL mediated tumor cell cytotoxic response. As to the kind of experiment: Combination cytotoxicity with DR5 ligand TRAIL. It is filed as cell-based. The conditions noted are these: in vitro, FIG. 4.
The next data set has as its system B-16 cells. The data set is described as follows: SRB cytotoxicity assay, B-16. It is filed as cell-based. The conditions noted are these: B16, Melanoma (Mouse). The protocol: as §1, §2
The test system of another data set is SW 620 cells. The data set is described as follows: SRB cytotoxicity assay, SW 620. The data set is classed as cell-based. The note with it: Homo sapiens, SW-620. On the procedure:
as §1

In the next data set the test system is 786-O cells. As to the kind of experiment: SRB cytotoxicity assay, 786-O. The data set is classed as cell-based. The conditions noted are these: Homo sapiens, 786-0, Kidney. On the procedure:
as §1, §2

For another data set, the system named is PARP, Caspase-3, cIAP-1. The data set is described as follows: Apoptosis antibody array / apoptotic markers. The data set is classed as cell-based. The note with it: treated cells vs control, FIG. 2 right and FIG. 3. On the procedure: Apoptosis array was performed by using Proteome Profiler Human Apoptosis Array Kit (ARY009) from R&D Systems following the manufacturer's instructions. The detailed assay procedure was followed. The images were captured by the gel documentation system (Bio-Rad chemidoc XRS plus), while ImageJ software (NIH) was used for analysis and quantification. Plotly software was used for heatmap generation (Montreal, Canada).

A further data set relates to 4T1 cells. The data set is described as follows: SRB cytotoxicity assay, 4T1. The data set is classed as cell-based. The conditions noted are these: Breast (Mouse). The protocol: as §1, §2
A further data set has as its system cancer cell lines. As to the kind of experiment: Cytotoxic potential against cancer cell lines (overall statement). The data set is classed as cell-based. The note with it: all cancer cells tested. The protocol:
as §1, §2

A further data set relates to HT29 cells. As to the kind of experiment: SRB cytotoxicity assay, HT29. The conditions noted are these: Homo sapiens, HT-29. It is filed as cell-based. On the procedure:
as §1

For a further data set, the system named is MCF-7 cells. As to the kind of experiment: SRB cytotoxicity assay, MCF-7. It is filed as cell-based. The conditions noted are these: Homo sapiens, MCF7, Breast. On the procedure:
as §1, §2

A further data set relates to MDAMB231 cells. As to the kind of experiment: SRB cytotoxicity assay, MDAMB231. The data set is classed as cell-based. The conditions noted are these: Homo sapiens, MDA-MB-231, Breast. The protocol:
as §1, §2

Data set [3] in a line: Organ distribution analysis. The data set is classed as in vivo, mice. The note with it: FIG. 9 right panel.

Chain of XIAP BIR3 protein (P98170 241-356 limits assumed): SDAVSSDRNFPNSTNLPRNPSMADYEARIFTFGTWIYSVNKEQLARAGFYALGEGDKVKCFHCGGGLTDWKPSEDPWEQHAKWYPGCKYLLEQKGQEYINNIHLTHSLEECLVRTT

Consider `CC[C@H](C)[C@H](NC(=O)[C@@H]1CC[C@H](c2ccc(C)o2)N1C(=O)[C@@H](NC(=O)[C@H](C)NC)C(C)C)C(=O)NC(c1ccccc1)c1ccccc1` [Compound 6, (2S,5R)-N-((2S,3S)-1-(benzhydrylamino)-3-methyl-1-oxopentan-2-yl)-1-((S)-3-methyl-2-((S)-2-(methylamino)propanamido)butanoyl)-5-(5-methylfuran-2-yl)pyrrolidine-2-carboxamide], for which the inhibition (in general, the relative decrease from the control value, in per cent) at 48 h, 10 μM in data set [1] came to 18.4 ± 2.1%. Also, the IC50 – broadly, the point on the concentration scale where inhibition reaches its midpoint – with VERO cells (Primates, Kidney (monkey), VERO) was over 10 µM; with K562 cells, 9.1 µM; in the data set with PANC-1 cells it was 5.83 µM; in the data set with PC-3 cells it was 6.02 µM; with B-16 cells it was 6.7 µM; in the data set with SW 620 cells (Colon, SW620), 4.31 µM. The IC50 in the data set with 786-O cells is 7.2 µM; in the data set on 4T1 cells, 4.17 µM; in the data set on HT29 cells (Colon, HT29), 6.66 µM; with MCF-7 cells, 5.02 µM; in the data set on MDAMB231 cells, 4.15 µM. Also, the “Toxicity against VERO cells (in words)” value with VERO cells (non-human VERO cells) is reported as “limited or minimal toxicity”. For the same molecule, the Ki (in general, the dissociation constant of the complex between target and ligand, obtained from inhibition or displacement) at XIAP BIR3 protein is 580 nM. Moreover, in [2], the “Sensitization of TRAIL mediated tumor cell cytotoxic response” value is given as “robustly sensitizes”. Moreover, the inhibition at 10 µM was 59.27 ± 0.1% in the data set with SW 620 cells (10 μM, 48 hours, SRB assay, read-out: In vitro cytotoxicity at 10 μM dose, SW 620 (percent growth inhibition)) and 65 ± 3.6% in the data set on HT29 cells (10 μM, 48 hours, SRB assay, read-out: In vitro cytotoxicity at 10 μM dose, HT29 (percent growth inhibition)). Besides, in the data set with PARP, Caspase-3, cIAP-1, the “Hallmark apoptotic features (PARP, Caspase-3, cIAP-1)” value is “cleavage of PARP and Caspase-3 and degradation of cIAP-1”. Also, the “Cytotoxic activity against cancer cells (in words)” value with cancer cell lines is “potent cytotoxic activity”. The “Presence in tumor tissues” value in data set [3] is given as “presence of C6 in tumor tissues in significant quantity”.
